The source of these data is PMC3093368 (PLoS Pathogens, 2011).

Data set [1] relates to HIVLAI-infected T1-B7 cells / Q9VF/5D-specific CTLs. As to the kind of experiment: Mouse CTL recognition of HIV-infected T1-B7 cells after epoxomicin treatment (IFNγ-ELISpot). It is filed as cell-based. The protocol: Mouse CTL lines were derived from splenocytes of peptide immunized HLA-B*07^mα3 transgenic mice. In brief, these mice express HLA-B*0702 heavy chain with a murine α3 domain and their H-2K^b and H-2D^b class Ia genes have been inactivated. Cytolytic activity of splenocyte cultures was first assessed in a^51Cr release assay. Peptide specific CTL lines were stimulated in vitro (5 µg/mL of peptide) and cultured in RPMI 1640 medium supplemented with 10% FCS, 0.5 µM 2-β-mercaptoethanol (Sigma), 100 IU/mL penicillin and 100 µg/mL streptomycin (Gibco-BRL). Ten days later, 2×10^3, 400 and 80 CTLs in triplicates were stimulated by 10^5 HIV-1-infected T1-B7 cells and IFNγ release was detected by ELISpot assay. Cross-reactivity of Q9VF/5D- and Q9VF/5N-specific CTLs was tested in IFNγ-ELISpot and Cr^51-release assays using T1-B7 peptide-loaded cells. Mouse CTL lines specific for the HLA-B*0702-restricted HIV-1 Nef-derived epitope F10LR (Nef 68[…]77; [22]) were used as controls. When stated, HIV-infected T1-B7 cells were treated with epoxomicin (6 h, 1 µg/ml, Calbiochem). To remove residual MHC-peptide complexes, epoxomycin-exposed cells were treated with a citrate-phosphate buffer (pH 3.3) containing 1% BSA and washed twice, prior co-culture with CTLs for an additional 8 h.

Data set [2] can be described thus: In vitro immunoproteasome digestion of 27mer peptides, MS/MS analysis. It is filed as in vitro ADME. The conditions noted are these: immunoproteasomes isolated from T2.27mp cells, 3 nmol 27mer, 1 µg immunoproteasome; for metabolised at 0.5 h, 30 µM: 100 µl 20 mM Hepes/KOH pH 7.8, 2 mM Mg acetate, 2 mM DTT, RP-HPLC ESI MS intensity, 30 min, read-out: substrate degraded after 30 min; for metabolised at 2 h, 30 µM: Hepes/KOH pH 7.8, MS intensity, read-out: substrate degraded after 2 h. On the procedure:
Immunoproteasomes were isolated from T2.27mp cells (that stably express all three immunosubunits) as previously described. Purified proteasomes were analyzed by SDS-PAGE. The yield was calculated at 90–95%. The 27mer peptides encompassing Q9VF/5D or Q9VF/5N were synthesized using standard Fmoc method on an Applied Biosystems 433A automated synthesizer. The peptides were purified by HPLC and analyzed by mass spectrometry. Three nmol of peptides were digested in vitro using 1 µg of proteasomes (for 0.5, 1, 2, 4, 8 and 18 h) in 100 µl of buffer containing 20 mM Hepes/KOH, pH 7.8, 2 mM magnesium acetate and 2 mM dithiothreitol. Reactions were stopped by the addition of trifluoroacetic acid to a final concentration of 0.3%. The digestions were analyzed, by mass spectrometry (RP-HPLC ESI) and the products were identified by MS/MS.

Another data set has as its system immunoproteasomes (IP). The data set is described as follows: Immunoproteasomes isolated from T2.27mp cells, in 20 mM Hepes/KOH, pH 7.8, 2 mM magnesium acetate and 2 mM dithiothreitol. As to conditions: up to 18 h.
Another data set relates to immunoproteasome (IP). As to the kind of experiment: Immunoproteasomes isolated from T2.27mp cells; 20 mM Hepes/KOH, pH 7.8, 2 mM magnesium acetate, 2 mM dithiothreitol. As to conditions: human, up to 18 h.

“Also recorded” adds a separate entry of the source. Ends that are not written are not given here.

As to `CC[C@H](C)[C@H](NC(=O)[C@H]([C@@H](C)CC)N(C)C(C)=O)C(=O)N[C@H](C(=O)N[C@@H](CC(C)C)C(=O)[C@@]1(C)CO1)[C@@H](C)O` [Epoxomicin, epoxomicin], in data set [1] (epoxomicin 1 µg/ml, 6 h at 37°C, citrate-phosphate buffer pH 3.3 wash, 8 h co-culture, IFNγ-ELISpot, representative of three CTL clones), the “effect on activation of Q9VF/5D-specific CTLs by HIVLAI-infected cells” value is given as “abolished the capacity of HIVLAI-infected cells to activate Q9VF/5D-specific CTLs”. In addition, in data set [1] (epoxomicin-treated T1-B7 cells, FACS, exogenous peptide 0.1 µg/ml), the “effect on MHC-density and presentation of exogenous peptide” value is “affected neither MHC-density”.

With “MGKSSRREGFQPRSDTHVFSIIRRSHP [Q9VF/5D substrate]”, in data set [2], the metabolised at 0.5 h, 30 µM is 24% and the metabolised at 2 h, 30 µM turned out to be 96%.

With “MGKSSRREGFQPRSNTHVFSIIRRSHP [Q9VF/5N substrate]”, in data set [2], the metabolised at 0.5 h, 30 µM worked out at 24% and the metabolised at 2 h, 30 µM turned out to be 96%.

As to MGKSSRREGFQPRSDTHVFSIIRRSHP, in the data set with immunoproteasomes (IP), the cleaved bond result was “F10-Q11, major; also recorded: F19-S20, major, 30 min; also recorded: I22-R23, major; also recorded: R24-S25, major; also recorded: S14-D15; also recorded: S4-S5; also recorded: R6-R7; also recorded: R23-R24”.

Regarding MGKSSRREGFQPRSNTHVFSIIRRSHP, the fragment found entry in the data set with immunoproteasome (IP) is “Q9VF (Q11-F19), minor”. Besides, in the data set with immunoproteasomes (IP), the cleaved bond entry is “F19-S20, 30 min; also recorded: S4-S5; also recorded: F10-Q11, 1 h; also recorded: I22-R23; also recorded: R24-S25; also recorded: N15-T16, major, 30 min”.
